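96-well plates; 48 h exposure; 5 concentrations. Endpoints by linear interpolation between flanking doses. Not reached: highest tested concentration assigned. The concentration for 50% growth inhibition is given as GI50. TGI: concentration producing complete growth inhibition.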
Columns and labels:
Experiment in all cases: inhibition of tumour cell growth, NCI panel, 48 h
[1] = test system: EKVX NSCLC
[2] = test system: SK-OV-3 ovarian
[3] = test system: OVCAR-4 ovarian
[4] = test system: NCI-H23 lung
[5] = test system: SK-MEL-28 melanoma
[6] = test system: HCC-2998 colon
[7] = test system: COLO 205 colon
[8] = test system: CCRF-CEM leukemia
[9] = test system: OVCAR-5 ovarian
[10] = test system: NCI/ADR-RES ovarian

Compound | TGI [1] [µM] | TGI [2] [µM] | TGI [3] [µM] | TGI [4] [µM] | TGI [5] [µM] | TGI [6] [µM] | TGI [7] [µM] | TGI [8] [µM] | TGI [9] [µM] | GI50 [10] [µM] | TGI [10] [µM] | GI50 [1] [µM] | GI50 [2] [µM] | GI50 [3] [µM] | GI50 [4] [µM] | GI50 [5] [µM] | GI50 [6] [µM] | GI50 [7] [µM] | GI50 [9] [µM] | GI50 [8] [µM]
CC(=O)NC(C)(C)C1CCC(C)=C(c2ccccc2)C1 (stereo not given) | > 100 | > 100 | > 100 | > 100 | > 100 | > 100 | > 100 | > 100 | > 100 |  |  |  |  |  |  |  |  |  |  | 
Cc1cccc(C2SCc3nc4ccccc4n32)c1 (stereo not given) | 68.4 | 72.9 | > 100 |  | 65.7 |  |  | > 100 | 65.8 |  |  |  |  |  |  |  |  |  |  | 
COC(=O)C1=C(O)[C@H](C(=O)OC)C2(O)C(C(=O)OC)[C@H](c3ccc(OC(=O)C(C)c4ccc(CC(C)C)cc4)cc3)C[C@@H]1[C@@H]2C(=O)OC (stereo not given in full) | 6.7 | > 50 | > 50 | 24.9 | 40.8 | 15.8 | 41.3 |  | > 50 | > 50 | > 50 | 0.97 | 38.5 | 11.7 | 11.1 | 12.6 | 7.95 | 12.3 | 17 | 
CCOC(=O)C(=O)CC1=Nc2ccccc2SC(c2cccc(C)c2)C1 (stereo not given) | 40.4 |  | 32 | 32 | 29.3 | 31.3 |  | 63.1 | 31.8 |  |  |  |  |  |  |  |  |  |  | 
COC(=O)N/N=C(\C)c1c(O)cc(C)oc1=O | > 100 | > 100 | > 100 | > 100 | > 100 | > 100 |  | > 100 |  |  |  |  |  |  |  |  |  |  |  | 
CCOP(=O)(OCC)C1CCCOC1=O (stereo not given) | > 100 | > 100 | > 100 | > 100 | > 100 | > 100 | > 100 | > 100 | > 100 |  |  |  |  |  |  |  |  |  |  | 
C[C@]12CC[C@H]3[C@@H](CC=C4C[C@@H](N5CCCC5)CC[C@@]43C)[C@@H]1C/C(=C\c1cccc(OCCN3CCOCC3)c1)[C@@H]2O | > 100 | 35.1 | 55.2 | 41.6 | 3.99 |  | 39.3 |  | > 100 |  |  | 8.02 | 17.2 | 13.3 | 13.3 | 2.01 |  | 3.89 | 31 | 
COc1ccc(Cc2coc3ccccc3c2=O)cc1OC | > 100 | > 100 | > 100 | > 100 | > 100 |  | > 100 | > 100 | > 100 |  | > 100 |  |  |  |  |  |  |  |  | 
O=C([CH-]C(=O)c1ccccc1)c1ccccc1.[CH-]1CCCCC1.[CH-]1CCCCC1.[CH-]1CCCCC1.[Sn+4] | 32.6 | 68.6 |  | 20.3 |  | 18.9 | 16.2 |  | 39.7 |  |  | 10.7 | 43.5 |  | 6.06 |  | 6.1 | 4.15 | 22.8 | 
O=[N+]([O-])C(/C=N/Nc1ccccc1)/C=N/Nc1ccccc1 | > 100 | > 100 | > 100 | > 100 | > 100 | > 100 | > 100 | > 100 | > 100 |  |  |  |  |  |  |  |  |  |  | 
COCN1COCN=C1NC#N | > 100 | > 100 | > 100 | > 100 | > 100 | > 100 | > 100 |  | > 100 |  |  |  |  |  |  |  |  |  |  | 
O=C1N2Cc3c4ccc5c3CN3C(=O)N6Cc7c(ccc(c7CN1C6(c1ccccc1)C23c1ccccc1)OCCOCCNCCOCCO4)OCCOCCNCCOCCO5 (stereo not given) | > 100 | > 100 | > 100 | > 100 | > 100 | > 100 |  | > 100 | > 100 |  |  |  |  |  |  |  |  |  |  | 
O=c1[nH]c2ccccc2nc1/C=C(\O)c1ccccc1O | > 100 | > 100 | > 100 | > 100 | > 100 | > 100 | > 100 | > 100 | > 100 |  |  |  |  |  |  |  |  |  |  | 
O=C(CC1OC(O)C(Cl)=C1Cl)c1cccnc1 (stereo not given) | > 100 | > 100 | > 100 | > 100 | > 100 | > 100 | > 100 | > 100 | > 100 |  |  |  |  |  |  |  |  |  |  | 
CN(C)CCNC(=O)c1cccc2cc3c(Cl)cccc3nc12 | 9.58 | 10.8 | 8.15 | 3.23 | 5.4 | 3.66 | > 29.3 |  | 6.68 |  |  |  |  |  |  |  |  |  |  | 
ClC/C=C/COC1CCCCO1 (stereo not given) | > 100 | > 100 | > 100 | > 100 |  | > 100 | > 100 | > 100 | > 100 |  |  |  |  |  |  |  |  |  |  | 
Cc1cccc(C)c1NC(=O)C1=NC(=S)NC(c2ccccc2)C1c1nc2ccccc2s1 (stereo not given) | > 100 | > 100 | > 100 | > 100 | > 100 | > 100 | > 100 | > 100 |  |  |  |  |  |  |  |  |  |  |  | 
O=C(/C=C/c1ccccc1F)c1ccc(Cl)c(Cl)c1 | > 100 | > 100 | > 100 | 24 | > 100 | > 71 | > 100 | 67.8 | > 100 |  |  |  |  |  |  |  |  |  |  | 
O=C1CC(c2cccc(F)c2)Nc2cc3c(cc21)OCO3 (stereo not given) | > 100 | > 100 | > 100 |  |  | < 0.01 |  | > 100 | > 100 |  |  |  | 0.0111 | > 100 |  |  | < 0.01 | < 0.01 | 13.4 | < 0.01
CC1=C(c2ccccc2)C(O)(c2ccccc2)C(C)C1=O (stereo not given) | > 100 | > 100 | > 100 | 46.4 | > 100 |  | > 100 | > 100 | > 100 | 2.95 | 9.94 | 35.1 | 20 | 24.3 | 10.1 | 25.5 |  | 25.1 | 53.1 | 23.7
O=C1C(c2ccc(Br)cc2)=[N+]([O-])c2ccccc21 | 29.5 | > 100 |  | 30.4 | 35.2 | 29.3 | 32.2 | 22.6 | 35.5 |  |  |  |  |  |  |  |  |  |  | 
